Read-outs that look alike come from different tables or passages of the source. Each block holds one compound with its values, some of them ahead of it.
How the values were obtained:
solid tumors = conditions: phase I and II clinical trials; single agent or in combination with several anticancer drugs; cited from earlier work
Melanoma A2620 cells = experiment: Crystal violet cell viability of melanoma A2620 cells, bortezomib with or without AS-7 (72 hours); type: cell-based, human; conditions: Homo sapiens, 72 h, read-out: IC50 of bortezomib (loss of cell viability)
Procedure: (§1) Melanoma A2620 cells were seeded in a 96 well tissue culture plate (2000 cells per well). The compounds, 10 μM AS-7 and bortezomib at the concentrations indicated in FIG. 8 were added the following day. […] Values are relative to controls that contained only the vehicle in which the drugs were dissolved. Vehicle had no effect on cell viability.

proteasome = experiment: Proteasome activity measured in lysates of treated cells; type: cell-based; conditions: bortezomib treated HeLa cells; data not shown
From the text: (§2) The cytotoxic action of bortezomib is known to be mediated by proteasome inhibition and the induction of apoptosis.

HeLa cells [1] = experiment: MTS cell viability of HeLa cells treated with anticancer drug with or without AS-7 (48 hours); type: cell-based, human; conditions: for IC50: Homo sapiens, HeLa, 48 h, 48 hours, MTS, read-out: IC50 of bortezomib (loss of HeLa cell viability)
Procedure: HeLa cells were seeded in a 96 well tissue culture plate (2000 cells per well). The compounds, 10 μM AS-7 and bortezomib (BioVision, Inc., Milpitas, Calif.) at the concentrations indicated in FIG. 1, were added the following day. AS-7 was prepared according to the Ugi reaction by combination of the four components: isocyanide (III), m-cyanobenzaldehyde (IV), 2-benzoylbenzoic acid (V), and histamine (VI) in refluxing methanol (Ref. http://www.occhem.com/synthesis/2561 2.html). The Medicinal Chemistry unit of Southern Research Institute (2000 Ninth Avenue South Birmingham, Ala. 35205) was contracted by a fee for service agreement to synthesize AS-7.
After 48 hours, MTS (3-(4,5-dimethylthiazol-2-yl)-5-(3-carboxymethoxyphenyl)-2-(4-sulfophenyl)-2H-tetrazolium) was added and absorbance was measured at 490 nm. […] Values in FIG. 1 are relative to controls that contained only the vehicle in which the drugs were dissolved. Vehicle had no effect on cell viability. Error bars in FIG. 1 are not visible if they are smaller than the symbols. […]
as §1, with “HeLa” for “Melanoma A2620”, “9” for “8”, “day. After 48 hours, MTS was added and absorbance was measured at 490 nm.” for “day.”

T47D cells = experiment: MTS cell viability of breast cancer T47D cells, bortezomib with or without AS-7; type: cell-based, human; conditions: 48 hours, MTS
Procedure: (§3) Breast cancer derived cell lines, T47D and 159C, were seeded in a 96 well tissue culture plate (2000 cells per well). The significance of these two lines of breast cancer derived cell lines is that the T47D cells positive for three markers used to optimize the chemotherapeutic treatment, namely HER2 receptor, estrogen receptor, and progesterone receptor. By contrast to the T47D cells, the 159C cells are negative for the three markers. The compounds, 10 μM AS-7 and a range of bortezomib (BioVision, Inc., Milpitas, Calif.) concentrations were added the following day. After 48 hours, MTS was added and absorbance was measured at 490 nm.

ovarian A2780 cells = experiment: Crystal violet cell viability of ovarian A2780 cells, bortezomib with or without AS-7 (72 hours); type: cell-based, human; conditions: Homo sapiens, A2780, 72 h, 72 hours, crystal violet, read-out: IC50 of the cytotoxic effect of bortezomib towards ovarian A2780 cells
Procedure: Ovarian tumor-derived cell lines, IGROV and A2780, were seeded in a 96 well tissue culture plate (2000 cells per well). The compounds, 10 μM AS-7 and bortezomib (BioVision, Inc., Milpitas, Calif.) at the concentrations indicated in the figures, were added the following day. AS-7 was prepared as described in Example I above. […] Values are relative to cells that with the vehicle in which the drugs were dissolved. Vehicle had no effect on cell viability. Error bars in FIG. 6 and FIG. 7 are not shown if they are smaller than the symbols.

caspase-3 = experiment: Caspase-3 activity measured in lysates of treated HeLa cells; type: cell-based; conditions: bortezomib treated HeLa cells; data not shown
From the text: as §2

[2] = cited from earlier work
159C cells = experiment: MTS cell viability of breast cancer 159C cells, bortezomib with or without AS-7; type: cell-based; conditions: 48 hours, MTS
Procedure: as §3

HeLa cells [3] = system: HeLa cells
Procedure: HeLa cells were treated with 10 micrograms/ml cycloheximide alone or together with a range of TNF-alpha concentrations from 2.5 to 20 nanograms per ml. Following treatment, the cells were fixed with 4% paraformaldehyde (4° C. for 30 minutes), stained for 30 minutes with 0.5% crystal violet in 10% ethanol, and washed extensively with water to remove dye that was not bound to the cells. Cell bound crystal violet was solubilized with 10% acetic acid and absorbance was measured at 590 nm to quantitate cell growth. The time course data for each cell line were fit by nonlinear regression analysis to the equation for exponential growth using GraphPad Prism software.

HeLa cells [4] = experiment: MTS cell viability of HeLa cells treated with anticancer drug with or without AS-7 (48 hours); type: cell-based, human; conditions: Homo sapiens, HeLa, 48 h, 48 hours, MTS, read-out: IC50 of carfilzomib (loss of HeLa cell viability)

- IC50 (Melanoma A2620 cells; in the absence of AS-7, 72 hours): ~7.3 nM
- IC50 (Melanoma A2620 cells; in the presence of 10 μM AS-7, 72 hours): ~2.4 nM
- IC50 (HeLa cells [1]; in the absence of AS-7): ~8.8 nM
- IC50 (HeLa cells [1]; in the presence of 10 μM AS-7): ~2.5 nM
Compound: CC(C)C[C@H](NC(=O)[C@H](Cc1ccccc1)NC(=O)c1cnccn1)B(O)O [bortezomib]
- activity against solid tumors (solid tumors): quite limited activity
- proteasome activity in cell lysates (proteasome): markedly inhibited
- sensitivity to the cytotoxic action of bortezomib by itself (T47D cells): highly sensitive
- IC50 (ovarian A2780 cells; in the absence of AS-7): ~12.9 nM
- IC50 (ovarian A2780 cells; in the presence of 10 μM AS-7): ~4.2 nM
- caspase-3 activity in cell lysates (caspase-3): increased
- median time to improvement from the neurotoxicity ([2]; after discontinuation of bortezomib treatment): three
- patients with Grades 1 and 2 peripheral neuropathy ([2]; patients with newly diagnosed disease under bortezomib therapy): ≤ 33%
- patients with grades 3 and 4 neurotoxicity ([2]; patients with newly diagnosed disease): up to 18%
- patients with Grades 1 and 2 peripheral neuropathy ([2]; patients with recurrent disease under bortezomib therapy): up to 75%
- patients with grades 3 and 4 neurotoxicity ([2]; patients with recurrent disease): up to 30%
- sensitivity to the cytotoxic action of bortezomib by itself (159C cells): highly sensitive

Compound: C[C@@H]1C[C@@H]([C@H](O)CC2CC(=O)NC(=O)C2)C(=O)[C@@H](C)C1 [cycloheximide, reference compound]
- effect on HeLa cell proliferation and cell death (HeLa cells [3]; 10 micrograms/ml cycloheximide alone, 24 hour interval, absence or presence of AS-7): cytostatic, but not cytotoxic

- IC50 (HeLa cells [4]; in the absence of AS-7): ~8.5 nM
- IC50 (HeLa cells [4]; in the presence of 10 μM AS-7): ~2.5 nM
Compound: CC(C)C[C@H](NC(=O)[C@H](CCc1ccccc1)NC(=O)CN1CCOCC1)C(=O)N[C@@H](Cc1ccccc1)C(=O)N[C@@H](CC(C)C)C(=O)[C@@]1(C)CO1 [carfilzomib]

Compound: TNF-alpha
- cytotoxicity to HeLa cells (HeLa cells [3]; TNF-alpha in combination with cycloheximide, apparent within six hours): rapidly cytotoxic

Compound: CC(C)CC(C=CS(C)(=O)=O)NC(=O)C(CC(C)C)NC(=O)C(CC(C)C)NC(=O)Cc1cc(I)c(O)c([N+](=O)[O-])c1 (stereo not drawn) [NLVS, 4-hydroxy-5-iodo-3-nitrophenylacetyl-Leu-Leu-leucinal-vinyl sulfone, reference compound]
- HeLa cell viability at NLVS concentrations that by themselves had little effect (HeLa cells [1]; in the presence of 10 μM AS-7): complete loss of viability

Reference: patent publication US20150038541A1, “COMPOSITION AND METHODS FOR CELL MODULATION” (APOSIGNAL BIOSCIENCE LLC, priority 2012, published 2015)
